The values below are quoted from earlier work in US20120046351A1, “Medicinal cannabis added in food” (priority 2010, published 2012).

The conditions of data set [1]: 180 degrees C.
The next data set has as its system people who use cannabis. To be noted: compared with the no cannabinoid and the TCH+CBD groups.

On to `CCCCCc1cc(O)c2c(c1)OC(C)(C)[C@@H]1CCC(C)=C[C@@H]21` [Δ^9-THC, Tetrahydrocannabinol], for which, in data set [1], the “degradation of Δ^9-THC into cannabinol and dihydrocannabinol” value is “A significant percentage of Δ^9-THC being degraded”. Further, in the data set on people who use cannabis, the positive schizophrenia-like symptoms result is on record as “higher levels of positive schizophrenia-like symptoms”.
